One series deals with NIH3T3. The experiment in a line: Cytotoxicity against mouse NIH3T3 cells assessed as reduction in cell viability at 100 uM incubated for 4 hrs by MTT assay. The format is toxicity, cell-based. The note with it: nih3t3, 4 h. For orientation: Tetrazolium assays rely on reduction of a dye to a coloured formazan, in cell work by metabolically active cells.
The target of the next series is T1, Androgen receptor (Homo sapiens, UniProt P10275).
T1 sequence (P10275 whole entry): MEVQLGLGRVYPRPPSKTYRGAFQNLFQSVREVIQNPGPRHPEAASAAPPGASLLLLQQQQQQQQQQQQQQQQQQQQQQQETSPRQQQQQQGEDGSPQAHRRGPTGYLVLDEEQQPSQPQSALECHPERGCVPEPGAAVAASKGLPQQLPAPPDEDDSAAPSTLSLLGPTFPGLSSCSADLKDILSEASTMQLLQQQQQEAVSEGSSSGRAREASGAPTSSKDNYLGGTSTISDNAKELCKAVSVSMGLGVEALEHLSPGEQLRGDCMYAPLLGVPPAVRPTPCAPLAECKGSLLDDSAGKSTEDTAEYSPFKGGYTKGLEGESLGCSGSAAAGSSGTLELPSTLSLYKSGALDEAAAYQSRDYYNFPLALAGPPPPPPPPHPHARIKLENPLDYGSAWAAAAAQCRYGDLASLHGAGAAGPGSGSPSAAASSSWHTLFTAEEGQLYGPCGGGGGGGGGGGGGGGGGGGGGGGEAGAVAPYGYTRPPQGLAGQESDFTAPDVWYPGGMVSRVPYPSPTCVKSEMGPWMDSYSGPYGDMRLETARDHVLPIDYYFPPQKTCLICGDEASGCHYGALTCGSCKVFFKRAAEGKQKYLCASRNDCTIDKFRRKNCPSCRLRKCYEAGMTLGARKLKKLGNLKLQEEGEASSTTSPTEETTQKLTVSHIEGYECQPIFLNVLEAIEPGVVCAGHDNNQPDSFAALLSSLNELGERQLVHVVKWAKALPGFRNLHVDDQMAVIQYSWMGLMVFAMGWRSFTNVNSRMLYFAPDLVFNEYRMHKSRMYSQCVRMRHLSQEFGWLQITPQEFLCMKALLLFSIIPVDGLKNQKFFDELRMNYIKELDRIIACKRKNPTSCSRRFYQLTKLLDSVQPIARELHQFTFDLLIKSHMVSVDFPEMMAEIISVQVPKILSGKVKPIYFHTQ
Briefly: Antagonist activity against human androgen receptor expressed in human LNCap cells trasfected with ARR2PB-eGFP cells incubated for 3 days by fluorescence based AR transcription assay. The format is cell-based.

Series [1] in a line: Volume of distribution in CB17-SCID mouse mouse at 50 mg/kg, iv. It is filed as ADME, organism-based. The note with it: in vivo.
Series [2] in a line: Cmax in CB17-SCID mouse mouse at 50 mg/kg, iv. The format is ADME, organism-based. Details: route intravenous, dose 50 mg/kg. The note with it: in vivo.
Series [3] is described as follows: Half life in CB17-SCID mouse mouse at 50 mg/kg, iv. It is filed as ADME, organism-based. The note with it: in vivo.
Series [4] is described as follows: Toxicity in CB17 SCID mouse xenografted with human LNCaP cells assessed as decrease in body weight at 2.5 mg/kg,IT(Intratumoral) administered once in every week for 25 days […]. The format is organism-based. Conditions: in vivo, other, 600 h, time 25 day.
The nature of series [5]: Clearance in CB17-SCID mouse mouse at 50 mg/kg, iv. The format is ADME, organism-based. Conditions: in vivo.
A short description of series [6]: Inhibition of prostate specific antigen expression in human LNCaP cells expressing ARR2PB-eGFP by immunoassay.

Experimental findings from ChEMBL document CHEMBL5042532, “Discovery of N-(4-(Benzyloxy)-phenyl)-sulfonamide Derivatives as Novel Antagonists of the Human Androgen Receptor Targeting the Activation Function 2” (J Med Chem, 2022) are described below.

Regarding `O=S(=O)(Cc1ccccc1)Nc1ccc(OCc2ccccc2)cc1`, the Activity result with NIH3T3 is listed as “Non-Toxic”.

As to `Cc1ccc(S(=O)(=O)Nc2ccc(OCc3ccccc3)cc2)cc1`, the IC50 (commonly the concentration that gives 50% inhibition) on Androgen receptor amounted to 11.5 µM.

On to `CC(=O)N1c2cc(S(=O)(=O)Nc3ccc(OCc4ccccc4)cc3)c(Br)cc2CC1C` (stereo not drawn), for which the IC50 against Androgen receptor was over 50 µM.

With `CC(C)CS(=O)(=O)Nc1ccc(OCc2ccccc2)cc1`, the IC50 against Androgen receptor is over 50 µM.

On to `Cn1c(=O)n(C)c2cc(S(=O)(=O)Nc3ccc(OCc4ccccc4)cc3)ccc21`, for which the IC50 against Androgen receptor was over 50 µM.

`O=S(=O)(Cc1ccc(Cl)cc1)Nc1ccc(OCc2ccccc2)cc1`: the IC50 on Androgen receptor is over 50 µM.

As to `COC(=O)c1sccc1S(=O)(=O)Nc1ccc(OCc2ccccc2)cc1`, the IC50 against Androgen receptor was over 50 µM.

With `CC(=O)c1ccc(S(=O)(=O)Nc2ccc(OCc3ccccc3)cc2)cc1`, the IC50 at Androgen receptor is over 50 µM.

In turn, `CCOC(=O)c1cn[nH]c1S(=O)(=O)Nc1ccc(OCc2ccccc2)cc1` gave an IC50 against Androgen receptor of over 50 µM.

In the case of `CC1NC(=O)NC(=O)C1S(=O)(=O)Nc1ccc(OCc2ccccc2)cc1` (stereo not drawn), at Androgen receptor, the IC50 is over 50 µM.

On Androgen receptor, `COc1ccc(CS(=O)(=O)Nc2ccc(OCc3ccccc3)cc2)cc1` registered a half-maximal inhibitory concentration (IC50) of over 50 µM.

Regarding `CN(C)S(=O)(=O)Nc1ccc(OCc2ccccc2)cc1`, the Activity entry in the series with NIH3T3 was “Non-Toxic”; in series [4] it was “Toxic”. The Vd – broadly, a proportionality between amount in the body and measured concentration, not a real space – in series [1] is 2.99 L/kg. Also, in series [2], the maximum concentration (Cmax) (in general, the highest concentration seen after dosing) came out at 890 ng/mL. For the same compound, the half-life (in general, the time needed for the level to fall by half in the phase considered) in series [3] was 1.52 h. Further, the clearance (as a rule, a measure of how efficiently the substance is removed, as volume per time) in series [5] was 366 mL/min/kg.

As for `CNC(=O)c1ccc(N2C(=S)N(c3ccc(C#N)c(C(F)(F)F)c3)C(=O)C2(C)C)cc1F` [ENZALUTAMIDE], the IC50 in series [6] came out at 0.1 µM. Also, the Activity entry in series [4] is listed as “Toxic”.

With `Cc1cc(C)c(S(=O)(=O)Nc2ccc(OCc3ccccc3)cc2)c(C)c1`, at Androgen receptor, the IC50 was over 50 µM.

As for `O=S(=O)(Nc1ccc(OCc2ccccc2)cc1)c1ccccc1`, in the series with NIH3T3, the Activity result was “Toxic”.

Compound `O=[N+]([O-])c1ccc(CS(=O)(=O)Nc2ccc(OCc3ccccc3)cc2)cc1` showed an IC50 at Androgen receptor of over 50 µM.

At Androgen receptor, `CC(=O)Nc1ccc(S(=O)(=O)Nc2ccc(OCc3ccccc3)cc2)cc1` gave an IC50 of over 50 µM.
